Measured values taken from BindingDB's records for doi:10.1002/cbic.201200521 (University of Cambridge, 2013).
pKd: −log10 of the molar value.

What follows are compounds tested against DNA repair and recombination protein RadA (Pyrococcus furiosus (strain ATCC 43587 / DSM 3638 / JCM 8422 / Vc1), UniProt O74036) (assay: Thermal Denaturation Assay).
Experimental: The thermal-shift denaturation assay was performed on an iCycler iQ Real Time Detection System (BioRad) in 96-well iCycler iQ PCR plates sealed with optically clear lids.

pKd	SMILES
2.68	Cc1ccc2[nH]ccc2c1 [Indole, 2]
2.68	Oc1ccc2[nH]ccc2c1
3.24	COC(=O)[C@@H](N)Cc1c[nH]c2ccccc12 [L-Methyl ester tryptophan, 8]

SMILES	pKd
c1ccc2[nH]ncc2c1 [Indazole, 5]	3.00
